The source of these data is ChEMBL document CHEMBL6083222, “Discovery of novel, orally bioavailable phenylacetamide derivatives as multikinase inhibitors and in vivo efficacy study in hepatocellular carcinoma animal models” (Bioorg Med Chem Lett, 2024).

Data set [1] deals with Voltage-gated inwardly rectifying potassium channel KCNH2 (Homo sapiens, UniProt Q12809). Description: Inhibition of hERG. Format: toxicity.
The target in data set [2] is T1, Receptor-type tyrosine-protein kinase FLT3 (Homo sapiens, UniProt P36888).
T1 sequence (P36888 whole entry): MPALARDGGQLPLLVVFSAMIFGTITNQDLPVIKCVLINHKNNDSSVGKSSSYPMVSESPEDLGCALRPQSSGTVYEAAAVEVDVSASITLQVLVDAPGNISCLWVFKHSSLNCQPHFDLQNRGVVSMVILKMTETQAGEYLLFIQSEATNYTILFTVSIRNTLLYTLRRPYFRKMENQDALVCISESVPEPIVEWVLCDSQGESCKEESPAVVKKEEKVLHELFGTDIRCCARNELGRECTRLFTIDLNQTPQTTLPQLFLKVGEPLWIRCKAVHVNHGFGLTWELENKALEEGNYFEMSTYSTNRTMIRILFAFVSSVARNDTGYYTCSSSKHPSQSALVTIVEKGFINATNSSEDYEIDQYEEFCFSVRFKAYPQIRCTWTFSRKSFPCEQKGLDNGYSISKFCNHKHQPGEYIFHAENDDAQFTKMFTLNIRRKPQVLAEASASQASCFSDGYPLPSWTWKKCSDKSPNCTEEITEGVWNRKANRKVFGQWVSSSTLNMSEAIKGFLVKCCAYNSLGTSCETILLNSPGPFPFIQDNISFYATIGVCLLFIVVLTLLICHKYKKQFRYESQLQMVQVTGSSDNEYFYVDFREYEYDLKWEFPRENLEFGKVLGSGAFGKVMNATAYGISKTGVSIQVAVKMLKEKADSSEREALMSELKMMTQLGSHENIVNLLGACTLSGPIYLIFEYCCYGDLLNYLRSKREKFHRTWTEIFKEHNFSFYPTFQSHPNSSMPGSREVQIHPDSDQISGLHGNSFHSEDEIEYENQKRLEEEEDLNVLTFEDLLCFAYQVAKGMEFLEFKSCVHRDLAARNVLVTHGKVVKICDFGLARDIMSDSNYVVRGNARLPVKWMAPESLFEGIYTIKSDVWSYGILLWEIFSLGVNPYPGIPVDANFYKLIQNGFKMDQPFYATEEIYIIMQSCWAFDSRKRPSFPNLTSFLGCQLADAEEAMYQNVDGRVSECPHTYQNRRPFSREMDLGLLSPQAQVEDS
Description: Inhibition of FLT3 (unknown origin)

For data set [3], the target named is Platelet-derived growth factor receptor alpha (Homo sapiens, UniProt P16234).
Sequence of Platelet-derived growth factor receptor alpha (P16234 whole entry): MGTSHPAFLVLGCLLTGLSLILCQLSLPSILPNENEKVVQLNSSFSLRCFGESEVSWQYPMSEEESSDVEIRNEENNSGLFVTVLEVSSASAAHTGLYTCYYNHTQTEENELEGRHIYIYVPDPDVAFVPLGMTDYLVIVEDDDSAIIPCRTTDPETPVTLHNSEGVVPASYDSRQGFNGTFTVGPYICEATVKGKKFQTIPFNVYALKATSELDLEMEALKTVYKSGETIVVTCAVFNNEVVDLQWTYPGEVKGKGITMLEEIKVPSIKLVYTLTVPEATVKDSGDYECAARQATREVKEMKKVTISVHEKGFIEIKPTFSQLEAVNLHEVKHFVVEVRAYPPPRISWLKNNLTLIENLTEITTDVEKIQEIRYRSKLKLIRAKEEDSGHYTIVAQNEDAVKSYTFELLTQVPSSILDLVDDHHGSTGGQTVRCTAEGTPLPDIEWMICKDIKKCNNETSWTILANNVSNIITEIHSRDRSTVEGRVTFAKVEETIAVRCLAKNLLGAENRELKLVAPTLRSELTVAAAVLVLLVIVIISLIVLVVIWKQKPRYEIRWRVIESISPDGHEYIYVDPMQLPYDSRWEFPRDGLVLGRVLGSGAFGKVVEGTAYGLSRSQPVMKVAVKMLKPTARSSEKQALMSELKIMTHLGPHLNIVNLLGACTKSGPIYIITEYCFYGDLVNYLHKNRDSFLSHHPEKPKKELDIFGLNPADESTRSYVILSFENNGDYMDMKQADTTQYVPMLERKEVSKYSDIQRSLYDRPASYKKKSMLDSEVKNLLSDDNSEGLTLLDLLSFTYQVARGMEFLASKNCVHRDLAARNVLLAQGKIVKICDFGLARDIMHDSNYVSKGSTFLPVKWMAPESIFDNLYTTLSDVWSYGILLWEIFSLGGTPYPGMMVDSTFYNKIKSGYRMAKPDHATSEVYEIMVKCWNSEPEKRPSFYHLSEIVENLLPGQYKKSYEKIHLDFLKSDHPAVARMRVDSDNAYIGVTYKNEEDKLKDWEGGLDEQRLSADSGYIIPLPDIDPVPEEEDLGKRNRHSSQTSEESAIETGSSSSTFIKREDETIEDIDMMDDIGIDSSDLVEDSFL
Description: Inhibition of PDGFR-alpha (unknown origin)
Data set [4] concerns the target Platelet-derived growth factor receptor beta (Homo sapiens, UniProt P09619).
Description: Inhibition of PDGFR-beta (unknown origin)
Data set [5] addresses Vascular endothelial growth factor receptor 2 (Homo sapiens, UniProt P35968). The data set is described as follows: Inhibition of KDR (unknown origin).
Data set [6] relates to Hep 3B2. Description: Anti-proliferative activity against human Hep3B cells.
Data set [7] deals with HT-29. The data set is described as follows: Anti-proliferative activity against human HT-29 cells.
Data set [8] can be described thus: Anti-proliferative activity against human KATO III cells.
For data set [9], the system named is SNU-16. Description: Anti-proliferative activity against human SNU-16 cells. Format: functional, cell-based.
For data set [10], the system named is Hep 3B2. Description: Antitumor activity against human Hep3B cells xenografted in BALB/c mouse at 60 mg/kg, po qd treated for 10 days followed by discontinuation of administration and re-continuation on day 18 measured after 7 days relative to control. To be noted: read-out: TGI. On the technique in general: In xenograft studies the graft and the host belong to different species.

The nature of data set [11]: Toxicity in BALB/c mouse xenografted with human Hep3B cells assessed as body weight loss at 60 mg/kg, po qd measured for 25 days. The format is organism-based. Conditions: in vivo, 600 h, time 25 day.
Data set [12] concerns HCT-116. Description: cells. To be noted: Homo sapiens.
Description: Anti-proliferative activity against human HCT-116 cells
Data set [13] has as its system Huh-7. Description: Anti-proliferative activity against human Huh-7 cells.
Data set [14] deals with HepG2. Description: Anti-proliferative activity against human HepG2 cells.

Sequence of Platelet-derived growth factor receptor beta (P09619 whole entry): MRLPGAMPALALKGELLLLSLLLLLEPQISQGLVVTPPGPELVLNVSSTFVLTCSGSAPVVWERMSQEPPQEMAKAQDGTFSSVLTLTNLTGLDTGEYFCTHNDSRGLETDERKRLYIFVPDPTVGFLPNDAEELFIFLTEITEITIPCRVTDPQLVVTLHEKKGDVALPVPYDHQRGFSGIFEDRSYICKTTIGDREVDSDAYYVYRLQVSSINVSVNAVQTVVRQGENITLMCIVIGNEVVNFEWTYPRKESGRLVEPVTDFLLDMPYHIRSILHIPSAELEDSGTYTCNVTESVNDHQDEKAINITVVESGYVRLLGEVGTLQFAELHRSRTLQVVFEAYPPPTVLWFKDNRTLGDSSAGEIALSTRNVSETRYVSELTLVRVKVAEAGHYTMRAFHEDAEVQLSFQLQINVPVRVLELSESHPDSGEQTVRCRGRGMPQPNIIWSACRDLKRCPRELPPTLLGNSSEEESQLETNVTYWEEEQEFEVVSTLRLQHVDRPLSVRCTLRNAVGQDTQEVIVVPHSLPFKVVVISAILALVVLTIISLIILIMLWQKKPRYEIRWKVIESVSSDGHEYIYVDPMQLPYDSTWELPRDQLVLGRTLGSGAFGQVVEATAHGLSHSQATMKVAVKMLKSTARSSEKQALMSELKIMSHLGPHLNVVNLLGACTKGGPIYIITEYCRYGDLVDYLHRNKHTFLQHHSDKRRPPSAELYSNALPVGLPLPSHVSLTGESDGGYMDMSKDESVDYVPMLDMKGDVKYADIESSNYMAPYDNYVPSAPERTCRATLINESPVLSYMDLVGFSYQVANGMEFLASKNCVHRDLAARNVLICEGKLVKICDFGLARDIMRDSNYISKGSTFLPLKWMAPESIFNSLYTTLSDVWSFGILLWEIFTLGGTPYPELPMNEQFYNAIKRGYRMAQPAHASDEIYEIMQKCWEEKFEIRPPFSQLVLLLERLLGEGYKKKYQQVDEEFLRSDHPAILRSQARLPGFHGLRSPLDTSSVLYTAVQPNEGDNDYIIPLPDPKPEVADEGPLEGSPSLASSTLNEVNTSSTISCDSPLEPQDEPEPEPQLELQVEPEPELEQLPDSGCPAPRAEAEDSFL
Sequence of Voltage-gated inwardly rectifying potassium channel KCNH2 (Q12809 whole entry): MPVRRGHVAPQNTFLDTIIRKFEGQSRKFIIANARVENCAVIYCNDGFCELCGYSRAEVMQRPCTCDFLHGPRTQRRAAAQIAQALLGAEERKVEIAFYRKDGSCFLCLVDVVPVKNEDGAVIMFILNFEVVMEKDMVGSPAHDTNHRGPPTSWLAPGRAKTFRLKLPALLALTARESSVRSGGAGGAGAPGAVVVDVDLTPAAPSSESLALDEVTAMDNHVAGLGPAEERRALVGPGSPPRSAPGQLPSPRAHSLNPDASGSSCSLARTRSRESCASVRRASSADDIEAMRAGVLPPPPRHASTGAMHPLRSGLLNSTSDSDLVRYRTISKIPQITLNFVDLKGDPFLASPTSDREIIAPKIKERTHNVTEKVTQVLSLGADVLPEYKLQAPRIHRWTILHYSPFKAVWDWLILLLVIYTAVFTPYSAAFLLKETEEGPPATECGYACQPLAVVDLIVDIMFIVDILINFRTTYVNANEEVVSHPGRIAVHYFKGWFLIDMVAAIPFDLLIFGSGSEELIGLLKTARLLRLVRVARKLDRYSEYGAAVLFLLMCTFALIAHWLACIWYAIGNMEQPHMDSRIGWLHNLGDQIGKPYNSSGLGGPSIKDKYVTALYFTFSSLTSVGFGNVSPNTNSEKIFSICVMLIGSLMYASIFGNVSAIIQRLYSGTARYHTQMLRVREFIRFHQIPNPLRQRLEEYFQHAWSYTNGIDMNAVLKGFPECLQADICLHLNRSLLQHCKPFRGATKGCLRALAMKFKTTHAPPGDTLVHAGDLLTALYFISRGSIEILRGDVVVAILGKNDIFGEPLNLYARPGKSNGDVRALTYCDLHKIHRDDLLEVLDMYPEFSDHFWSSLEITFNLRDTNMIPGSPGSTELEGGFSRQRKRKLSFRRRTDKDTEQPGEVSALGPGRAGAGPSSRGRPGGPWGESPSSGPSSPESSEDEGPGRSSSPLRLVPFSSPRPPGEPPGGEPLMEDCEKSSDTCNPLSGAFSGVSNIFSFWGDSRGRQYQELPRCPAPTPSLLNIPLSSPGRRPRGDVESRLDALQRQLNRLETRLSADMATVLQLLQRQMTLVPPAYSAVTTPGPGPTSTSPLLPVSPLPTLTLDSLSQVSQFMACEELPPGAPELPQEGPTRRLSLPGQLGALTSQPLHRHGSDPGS
Sequence of Vascular endothelial growth factor receptor 2 (P35968 whole entry): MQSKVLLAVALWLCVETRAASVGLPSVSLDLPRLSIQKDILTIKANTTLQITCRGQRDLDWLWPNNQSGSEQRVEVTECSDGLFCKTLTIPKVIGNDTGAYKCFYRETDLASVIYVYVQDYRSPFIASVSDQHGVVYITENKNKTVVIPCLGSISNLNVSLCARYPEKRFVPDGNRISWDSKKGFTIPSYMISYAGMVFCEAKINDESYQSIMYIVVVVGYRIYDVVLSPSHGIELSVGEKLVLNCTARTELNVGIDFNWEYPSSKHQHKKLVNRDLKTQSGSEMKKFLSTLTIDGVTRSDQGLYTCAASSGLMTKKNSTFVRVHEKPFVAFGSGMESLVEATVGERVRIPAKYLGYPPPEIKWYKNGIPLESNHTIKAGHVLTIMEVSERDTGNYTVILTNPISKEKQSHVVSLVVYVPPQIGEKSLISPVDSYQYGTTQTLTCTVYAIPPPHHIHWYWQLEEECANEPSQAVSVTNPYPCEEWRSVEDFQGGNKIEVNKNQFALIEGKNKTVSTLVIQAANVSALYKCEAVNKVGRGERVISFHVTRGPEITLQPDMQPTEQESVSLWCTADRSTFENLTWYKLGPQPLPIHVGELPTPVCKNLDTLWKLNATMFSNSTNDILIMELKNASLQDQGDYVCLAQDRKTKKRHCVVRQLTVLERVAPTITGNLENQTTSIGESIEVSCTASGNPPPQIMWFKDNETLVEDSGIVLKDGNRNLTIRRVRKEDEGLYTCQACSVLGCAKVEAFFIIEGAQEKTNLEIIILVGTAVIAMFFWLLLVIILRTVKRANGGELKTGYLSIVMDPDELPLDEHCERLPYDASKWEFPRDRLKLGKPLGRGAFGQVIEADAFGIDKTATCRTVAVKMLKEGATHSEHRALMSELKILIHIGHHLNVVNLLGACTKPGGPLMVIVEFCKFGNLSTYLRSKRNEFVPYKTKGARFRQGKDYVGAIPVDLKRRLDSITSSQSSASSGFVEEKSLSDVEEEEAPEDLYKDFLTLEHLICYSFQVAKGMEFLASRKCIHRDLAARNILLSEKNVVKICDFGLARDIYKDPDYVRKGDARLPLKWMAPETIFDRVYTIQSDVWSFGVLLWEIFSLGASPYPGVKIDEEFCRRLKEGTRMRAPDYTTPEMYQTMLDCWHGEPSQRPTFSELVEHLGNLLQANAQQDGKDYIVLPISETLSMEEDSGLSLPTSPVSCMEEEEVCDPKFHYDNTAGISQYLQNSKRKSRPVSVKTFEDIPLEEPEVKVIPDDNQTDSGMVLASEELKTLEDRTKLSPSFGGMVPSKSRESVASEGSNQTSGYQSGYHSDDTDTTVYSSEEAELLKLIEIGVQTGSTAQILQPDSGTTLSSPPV

In general, IC50 refers to the midpoint of a concentration-inhibition curve. A high value points to weaker potency. Turning to `Cn1cc(-c2ccc3c(c2)ncn3-c2ccc(CC(=O)Nc3cc(C(C)(C)C)no3)cc2)cn1`, the IC50 in data set [1] was 17900 nM; in data set [2], 0.59 nM; in data set [3], 0.22 nM; in data set [4] it was 1.15 nM.
As for `CC(C)(C)c1cc(NC(=O)Cc2ccc(-n3cnc4cc(C5CCNCC5)ccc43)cc2)on1`, the results for the IC50 in data set [2], in data set [3] and in data set [4] were 22 nM, 11 nM and 12 nM, respectively.
Take `CC(C)(C)OC(=O)Cn1cc(-c2ccc3c(c2)ncn3-c2ccc(CC(=O)Nc3cc(C(C)(C)C)no3)cc2)cn1`: the IC50 in data set [5] stood at 6.5 nM. This counts as single-digit nanomolar.
`CC(C)(C)c1cc(NC(=O)Cc2ccc(-n3cnc4cc(-c5cn[nH]c5)ccc43)cc2)on1`: the IC50 in data set [1] turned out to be 26500 nM; in data set [2], 0.33 nM; in data set [3], 0.18 nM; in data set [4], 0.89 nM.
Regarding `CNC(=O)c1cc(Oc2ccc(NC(=O)Nc3ccc(Cl)c(C(F)(F)F)c3)cc2)ccn1` [SORAFENIB], the IC50 in data set [6] worked out at 3330 nM; in [7] it was 5350 nM; in [8], 569 nM; in data set [9] it was 954 nM; in data set [12], 4430 nM. Also, the inhibition in vivo at 60 mg/kg in [10] amounted to 34%. The Activity in [11] is ~ 16.32%.
`CC(C)(C)c1cc(NC(=O)Cc2ccc(-n3cnc4cc(-c5cccnc5)ccc43)cc2)on1`: the figures for the IC50 in data set [2], in data set [3] and in data set [4] were 0.73 nM, 0.28 nM and 1.3 nM, respectively.
As for `COc1cc2nccc(Oc3ccc(NC(=O)C4(C(=O)Nc5ccc(F)cc5)CC4)cc3)c2cc1OC` [CABOZANTINIB], the IC50 turned out to be 3660 nM in data set [13]; 3660 nM in [14]; 6500 nM in [6]; 5840 nM in [7]; 7260 nM in data set [12].
